Series [1] has as its system SK-OV-3. As to the kind of experiment: Antiproliferative activity against human SK-OV-3 cells assessed inhibition of cell growth incubated for 48 hrs by MTT assay. Format: functional, cell-based. Conditions: SK-OV-3, 48 h. For orientation: Tetrazolium assays rely on reduction of a dye to a coloured formazan, in cell work by metabolically active cells.
The nature of series [2]: Antiproliferative activity against human UWB1289 cells harboring BRCA1 assessed inhibition of cell growth incubated for 48 hrs by MTT assay. Format: functional, cell-based. Conditions: UWB1289, 48 h.
The subject of series [3] is PC-3. The series can be described thus: Antiproliferative activity against human PC-3 cells assessed inhibition of cell growth incubated for 48 hrs by MTT assay. Format: functional, cell-based. Conditions: PC-3, 48 h.
Series [4] has as its system MCF7. The series can be described thus: Antiproliferative activity against human MCF7 cells assessed inhibition of cell growth incubated for 48 hrs by MTT assay. The series is classed as functional, cell-based. Conditions: MCF7, 48 h.
Series [5] has as its system MRC5. As to the kind of experiment: Antiproliferative activity against human MRC5 cells assessed inhibition of cell growth incubated for 48 hrs by MTT assay. The series is classed as functional, cell-based. Conditions: MRC5, 48 h.
For series [6], the system named is SK-OV-3. As to the kind of experiment: Growth inhibition of human SK-OV-3 cells incubated for 48 hrs by MTT assay. The series is classed as functional.
Series [7] is described as follows: Growth inhibition of human UWB1289 cells harboring BRCA1 incubated for 48 hrs by MTT assay. The series is classed as functional.
The subject of series [8] is PC-3. As to the kind of experiment: Growth inhibition of human PC-3 cells incubated for 48 hrs by MTT assay. Format: functional.
Series [9] deals with MCF7. As to the kind of experiment: Growth inhibition of human MCF7 cells incubated for 48 hrs by MTT assay. Format: functional.
The subject of series [10] is MRC5. As to the kind of experiment: Growth inhibition of human MRC5 cells incubated for 48 hrs by MTT assay. The series is classed as functional.
Series [11] in a line: Acute toxicity in ip dosed CB17 SCID mouse assessed as lethal dose. Conditions: in vivo. Details: LD20: unit not given here. Format: organism-based.
The test system of series [12] is SK-OV-3. The series can be described thus: Antitumor activity against human SK-OV-3 cells xenografted in CB17 SCID mouse assessed as reduction in tumor volume at 36 mg/kg, ip administered as single dose measured after 11 days (reference value: 790 +/- 65.6 mm3). Conditions: time 11 day. The series is classed as functional. A general note: Xenograft models place foreign cells or tissue in a host animal.

The test system of series [13] is SK-OV-3. The series can be described thus: Antitumor activity against human SK-OV-3 cells xenografted in CB17 SCID mouse assessed as tumor inhibition at 36 mg/kg, ip administered as single dose measured after 11 days. Format: functional. Conditions: SK-OV-3, 264 h, time 11 day, read-out: TGI.
Series [14] deals with PC-3. The series can be described thus: Antitumor activity against human PC-3 cells xenografted in CB17 SCID mouse assessed as reduction in tumor volume at 36 mg/kg, ip administered as single dose measured after 21 days (reference value: 683 +/- 47.3 mm3). The series is classed as functional. Conditions: time 21 day.
For series [15], the system named is PC-3. As to the kind of experiment: Antitumor activity against human PC-3 cells xenografted in CB17 SCID mouse assessed as tumor inhibition at 36 mg/kg, ip administered as single dose measured after 21 days. The series is classed as functional. Conditions: PC-3, 504 h, time 21 day, read-out: TGI.
The test system of series [16] is P388. As to the kind of experiment: Antitumor activity against mouse P388 cells xenografted in CB17 SCID mouse assessed as T/C ratio at 140 uM, ip administered as single dose measured after 17 days. Conditions: time 17 day. The series is classed as functional.
The test system of series [17] is HT-29. As to the kind of experiment: Antiproliferative activity against human HT-29 cells assessed inhibition of cell growth incubated for 48 hrs by MTT assay. Conditions: HT-29, 48 h. The series is classed as functional, cell-based.
The test system of series [18] is LS174T. The series can be described thus: Antiproliferative activity against human LS174T cells assessed inhibition of cell growth incubated for 48 hrs by MTT assay. Format: functional, cell-based.
Series [19] has as its system LoVo. As to the kind of experiment: Antiproliferative activity against human LoVo cells assessed inhibition of cell growth incubated for 48 hrs by MTT assay. The series is classed as functional, cell-based.
Series [20] relates to MDA-MB-453. As to the kind of experiment: Antiproliferative activity against human MDA-MB-453 cells assessed inhibition of cell growth incubated for 48 hrs by MTT assay. Format: functional, cell-based. Conditions: MDA-MB-453, 48 h.
Series [21] relates to MDA-MB-231. As to the kind of experiment: Antiproliferative activity against human MDA-MB-231 cells assessed inhibition of cell growth incubated for 48 hrs by MTT assay. Format: functional, cell-based. Conditions: MDA-MB-231, 48 h.
In series [22] the test system is HeLa. The series can be described thus: Antiproliferative activity against human HeLa cells assessed inhibition of cell growth incubated for 48 hrs by MTT assay. The series is classed as functional, cell-based.
Series [23] relates to HuP-T3. The series can be described thus: Antiproliferative activity against human HuP-T3 cells assessed inhibition of cell growth incubated for 48 hrs by MTT assay. Format: functional, cell-based. Conditions: HuP-T3, 48 h.
Series [24] has as its system SK-OV-3. The series can be described thus: Antitumor activity against human SK-OV-3 cells xenografted in CB17 SCID mouse assessed as tumor inhibition at 140 uM, ip administered as single dose measured after 17 days. The series is classed as functional. Conditions: SK-OV-3, 408 h, time 17 day, read-out: TGI.

By IC50 is commonly meant the midpoint of a concentration-inhibition curve. One may read the GI50 as the concentration that inhibits growth by half. Usually TGI stands for the concentration at which net growth stops. As for `C[C@]12CC[C@H]3[C@@H](CCC4=CC(=O)NCC[C@@]43C)[C@@H]1CC[C@@H]2OC(=O)[C@@H](O)COc1ccc(N(CCCl)CCCl)cc1`, the IC50 was found to be 9 µM in series [1]; 51 µM in [2]; 11 µM in series [3]; 8 µM in series [4]; 22.5 µM in series [5]. Moreover, the GI50 in series [6] is 1 µM; in [7], 1.2 µM; in series [8], 2 µM; in series [9], 1.5 µM; in [10] it was 3 µM. The TGI was found to be 3.5 µM in [6]; 4 µM in [7]; 4 µM in series [8]; 3.8 µM in series [9]; 10 µM in [10]. For the same compound, the LD50 in [11] (CB17 SCID, read-out: LD50) worked out at 28 mg/kg. Moreover, in series [11] (ip), the LD10 was 36 mg/kg. Moreover, the values for the Activity in [12] and in [14] were 192 mm3 and 181 mm3, respectively. In addition, the values for the inhibition in vivo at 36 mg/kg in series [13] and in series [15] were 95% and 85.2%, respectively.

As to `CC(=O)O[C@@H](COc1ccc(N(CCCl)CCCl)cc1)C(=O)O`, the concentration for half-maximal inhibition (IC50) in series [1], in series [2], in [3], in [4] and in [5] was greater than 100 µM each time. Further, the GI50 in [6] was greater than 100 µM; in [7], greater than 100 µM; in series [8], greater than 100 µM; in series [9] it was 80 µM; in series [10] it was 50 µM. In addition, the TGI in [6], in series [7], in series [8], in series [9] and in series [10] was greater than 100 µM in each case.

`C[C@]12CC(=O)[C@H]3[C@@H](CCC4=CC(=O)NCC[C@@]43C)[C@@H]1CC[C@@H]2OC(=O)[C@@H](O)COc1ccc(N(CCCl)CCCl)cc1`: the IC50 in series [1] was found to be 36 µM; in [2], 56 µM; in [3] it was 28 µM; in series [4] it was 21 µM; in [5] it was 68 µM. The GI50 in [6] stood at 3.4 µM; in [7], 5 µM; in series [8], 4 µM; in series [9], 6 µM; in series [10] it was 12 µM. The concentration for total growth inhibition (TGI) worked out at 12 µM in [6]; 13.2 µM in [7]; 9 µM in [8]; 11 µM in series [9]; 44 µM in [10].

As to `C[C@]12CC(=O)[C@H]3[C@@H](CCC4=CC(=O)NCC[C@@]43C)[C@@H]1CC[C@@H]2OC(=O)CCOc1ccc(N(CCCl)CCCl)cc1`, the IC50 in series [1], in [2], in series [17], in series [18], in series [19] and in series [20] was 65 µM each time. For the same compound, the half-inhibitory concentration (IC50) in [21], in [22] and in [23] was 65 µM in each case. Besides, the LD20 in series [11] (ip) turned out to be 140. In series [11] (ip), the LD50 is reported as 110. In addition, the T/C in series [16] was 356.

Regarding `C[C@]12CC(=O)[C@H]3[C@@H](CCC4=CC(=O)NCC[C@@]43C)[C@@H]1CC[C@@H]2OC(=O)[C@@H](N)COc1ccc(N(CCCl)CCCl)cc1`, the 50% inhibitory concentration (IC50) in series [1], in series [2], in series [17], in series [18], in [19] and in series [20] was 4 µM throughout. Besides, the IC50 in series [21], in [22] and in [23] was 4 µM throughout. Further, the LD20 in [11] (ip) came to 10. For the same compound, in series [11] (ip), the LD50 is recorded as 14. Also, the T/C in series [16] stood at 109.9. Moreover, the inhibition in vivo at 140 µM in series [24] was 110%.

As to `CC(=O)O[C@@H](COc1ccc(N(CCCl)CCCl)cc1)C(=O)Oc1ccc2c(c1)CC[C@@H]1[C@@H]2CC[C@]2(C)NC(=O)CC[C@@H]12`, the IC50 in series [1] was 22 µM; in [2] it was 11.9 µM; in series [3], 15 µM; in [4], 10 µM; in series [5] it was 19 µM. In addition, the GI50 in [6] stood at 4 µM; in [7], 3 µM; in series [8], 4.5 µM; in series [9], 2 µM; in series [10], 6.5 µM. Besides, the TGI in series [6] worked out at 9 µM; in series [7], 8.8 µM; in [8], 8.9 µM; in series [9] it was 5.5 µM; in series [10], 10 µM.

Take `CC(=O)O[C@@H](COc1ccc(N(CCCl)CCCl)cc1)C(=O)O[C@H]1CC[C@H]2[C@@H]3CCC4=CC(=O)NCC[C@]4(C)[C@H]3C(=O)C[C@]12C`: the IC50 worked out at 33 µM in series [1]; 12 µM in series [2]; 16 µM in [3]; 12 µM in series [4]; 52 µM in series [5]. Moreover, the GI50 came to 3.8 µM in series [6]; 3 µM in series [7]; 8.2 µM in series [8]; 2.2 µM in series [9]; 27 µM in series [10]. The TGI amounted to 9 µM in series [6]; 7 µM in series [7]; 9 µM in [8]; 7 µM in series [9]; 38 µM in series [10].

In the case of `C[C@]12CC[C@H]3[C@@H](CCC4=CC(=O)NCC[C@@]43C)[C@@H]1CC[C@@H]2OC(=O)[C@@H](N)COc1ccc(N(CCCl)CCCl)cc1`, the concentration for half-maximal inhibition (IC50) in series [1], in [2], in series [17], in series [18], in series [19] and in series [20] was 1 µM each time. Moreover, the IC50 in series [21], in series [22] and in [23] was 1 µM throughout. For the same compound, in [11] (ip), the LD20 came out at 12.5. The LD50 in [11] (ip) is 21. Also, in series [16], the T/C turned out to be 410.3.

For the compound `CC(=O)O[C@@H](COc1ccc(N(CCCl)CCCl)cc1)C(=O)O[C@H]1CC[C@H]2[C@@H]3CCC4=CC(=O)NCC[C@]4(C)[C@H]3CC[C@]12C`, the half-maximal inhibitory concentration (IC50) in series [1] turned out to be 3.9 µM; in series [2] it was 6.3 µM; in series [3], 9 µM; in [4] it was 4.3 µM; in series [5], 21.5 µM. The GI50 in series [6] was 0.8 µM; in series [7], 0.7 µM; in [8], 1.7 µM; in series [9], 1.5 µM; in [10], 3.9 µM. Further, the concentration for total growth inhibition (TGI) worked out at 2.2 µM in series [6]; 2.2 µM in series [7]; 3.9 µM in series [8]; 3.4 µM in series [9]; 15.3 µM in series [10].

(Values after ChEMBL document CHEMBL5346881 (Eur J Med Chem, 2023).)
